Reference: patent US10576085B2, “Substituted aminopurine compounds, compositions thereof, and methods of treatment therewith” (Signal Pharmaceuticals, LLC, priority 2016, dated 2020)

Assays:
Test in all cases: Apoptosis, Caspase 3/7-Glo
Assay type in all cases: cell-based
Conditions in all cases: lowest concentration inducing 2-fold increase of cleaved caspase 3/7 vs DMSO
[1] = test system: JHH-5
Protocol: (§1) Prior to testing, cells were grown and expanded in culture flasks to provide sufficient amounts of starting material. Cells were then diluted to the appropriate densities and added directly to the compound-spotted 384-well plates. Cells were allowed to grow for 72 h at 37° C./5% CO2. At the time when compound was added (t0), initial cell number was assessed via a viability assay (Cell Titer-Glo) by quantifying the level of luminescence generated by ATP present in viable cells. After 72 h, cell viability of compound-treated cells was assessed via Cell Titer-Glo and luminescence measurement. The apoptotic response to Compound 1 was assessed by quantifying the activities of caspase 3 and caspase 7 (Caspase 3/7-Glo) in treated cells and DMSO control cells.
(§2) Proliferation and apoptosis were measured using CellTiter-Glo and Caspase 3/7-Glo. CalX2 values are the lowest concentration at which Compound 1 induces a 2-fold increase of cleaved caspase 3/7 compared to DMSO control. Proliferation and apoptosis data is the average of 3 experiments.

[2] = test system: JHH-7
Protocol: as §1, §2

[3] = test system: HuH-1
Protocol: as §1, §2

[4] = test system: SNU-423
Protocol: as §1, §2

[5] = test system: JHH-1
Protocol: as §1, §2

[6] = test system: FOCUS
Protocol: as §1, §2

[7] = test system: SNU-182
Protocol: as §1, §2

[8] = test system: HLE
Protocol: as §1, §2

[9] = test system: JHH-6
Protocol: as §1, §2

[10] = test system: JHH-4
Protocol: as §1, §2

[11] = test system: SK-HEP-1
Protocol: as §1, §2

[12] = test system: JHH-2
Protocol: as §1, §2

[13] = test system: HuH-6-Clone5
Protocol: as §1, §2

[14] = test system: HLF
Protocol: as §1, §2

[15] = test system: PLC-PRF-5
Protocol: as §1, §2

[16] = test system: HuCCT1
Protocol: as §1, §2

[17] = test system: HuH-7
Protocol: as §1, §2

[18] = test system: HepG2/C3A
Protocol: as §1, §2

[19] = test system: HepG2
Protocol: as §1, §2

[20] = test system: SNU-475
Protocol: as §1, §2

[21] = test system: SNU-449
Protocol: as §1, §2

[22] = test system: SNU-398
Protocol: as §1, §2

[23] = test system: SNU-387
Protocol: as §1, §2

C[C@]1(C(N)=O)CC[C@@H](n2c(Nc3c(Cl)cc(Cl)cc3Cl)nc3cnc(N[C@@H]4CCOC[C@H]4F)nc32)CC1 [Compound 1, cis-4-[2-{[(3S,4R)-3-fluorooxan-4-yl]amino}-8-(2,4,6-trichloroanilino)-9H-purin-9-yl]-1-methyl cyclohexane-1-carboxamide]
Cal_X2 [1]: 0.0139 | Cal_X2 [2]: 4.7601 | Cal_X2 [3]: 6.5641 | Cal_X2 [4]: 10.0000 | Cal_X2 [5]: 0.0427 | Cal_X2 [6]: 3.8562 | Cal_X2 [7]: 5.2385 | Cal_X2 [8]: 10.0000 | Cal_X2 [9]: 10.0000 | Cal_X2 [10]: 0.0588 | Cal_X2 [11]: 10.0000 | Cal_X2 [12]: 0.2806 | Cal_X2 [13]: 1.5813 | Cal_X2 [14]: 7.2156 | Cal_X2 [15]: 3.8310 | Cal_X2 [16]: 0.0213 | Cal_X2 [17]: 0.0118 | Cal_X2 [18]: 0.8273 | Cal_X2 [19]: 0.0129 | Cal_X2 [20]: 10.0000 | Cal_X2 [21]: 10.0000 | Cal_X2 [22]: 0.0378 | Cal_X2 [23]: 0.0046
